The results in this text go back to ChEMBL document CHEMBL1201862, “PubChem BioAssay data set” (2004).

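These data come from cells grown in 96-well plates and exposed to compound for 48 hours at five concentrations. The concentration for 50% growth inhibition is given as GI50.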 Calls of active or inactive are those of the source. Cut-off read from the data, not from the text of the source: active = GI50 up to about 1.1 µM and inactive = higher.

Among the test systems are EKVX; SW-620; OVCAR-8; LXFL 529; KM-20L2; SNB-19; SK-MEL-2; DMS-114; RPMI-8226; NCI-H226; DLD-1; U-251; XF498; MCF7; SR; T47D; Hs-578T; BT-549; MDA-N; PC-3.
Holding throughout (assay): NCI tumour cell line growth inhibition, 48 h

As for `CCN(CC)c1c(C(=O)/C=C/c2ccc(Cl)cc2)c(-c2ccccc2)nn(C)c1=O`, the GI50 in the experiment with EKVX is 2.07 µM (inactive); in the experiment on SW-620, 2.16 µM (inactive); in the experiment on OVCAR-8, 1.64 µM (inactive); in the experiment on LXFL 529, 1.85 µM (inactive); with KM-20L2, 2.47 µM (inactive); in the experiment on SNB-19 it was 1.93 µM (inactive). Further, the GI50 was 1.93 µM (inactive) in the experiment with SK-MEL-2; 1.97 µM (inactive) with DMS-114; 2.25 µM (inactive) with RPMI-8226; 2.05 µM (inactive) with NCI-H226; 1.73 µM (inactive) in the experiment on DLD-1; 1.76 µM (inactive) in the experiment on U-251.
Take `Cc1c2ccncc2c(C)c2c1[nH]c1ccc(OCCN(C)C)cc12`: the GI50 with EKVX was 0.526 µM (active); in the experiment with XF498, 0.807 µM (active); in the experiment with MCF7 it was 0.164 µM (active); in the experiment with SW-620, 0.0353 µM (active); with OVCAR-8, 0.112 µM (active); in the experiment with KM-20L2 it was 0.113 µM (active). Further, the GI50 in the experiment with SNB-19 was 0.256 µM (active); in the experiment on SK-MEL-2, 0.658 µM (active); with RPMI-8226 it was 0.0638 µM (active); in the experiment with NCI-H226 it was 0.365 µM (active); in the experiment with DLD-1 it was 0.0893 µM (active); in the experiment on U-251 it was 0.209 µM (active).
Turning to `COC1(O)c2cccc(Cl)c2C(=O)N1C1(C(N)=O)CCCCC1` (centres undefined), the GI50 in the experiment on EKVX, in the experiment with XF498, with MCF7, in the experiment on SW-620, in the experiment on OVCAR-8 and in the experiment with KM-20L2 was > 100 µM (inactive) in each case. In addition, the GI50 in the experiment on SNB-19, in the experiment with SK-MEL-2, in the experiment on DMS-114, in the experiment with RPMI-8226, in the experiment on NCI-H226 and with DLD-1 was > 100 µM (inactive) in each case. In the experiment on U-251, the GI50 was > 100 µM (inactive).
On to `COC1=CC(=O)OC(/C=C(C)/C=C/C2=C(C)CCCC2(C)C)C1` (centres undefined), for which the GI50 with EKVX was > 100 µM (inactive); in the experiment with SW-620, > 100 µM (inactive); with OVCAR-8 it was > 100 µM (inactive); with LXFL 529, > 100 µM (inactive); in the experiment with KM-20L2, 36 µM (inactive); in the experiment with SNB-19, > 100 µM (inactive). The GI50 in the experiment on SK-MEL-2, with DMS-114, in the experiment with SR, in the experiment with NCI-H226, in the experiment with DLD-1 and in the experiment with U-251 was > 100 µM (inactive) in each case.
As to `C[N+](C)(C)CC1CCC(C[N+](C)(C)C)C1=NO` (centres undefined), the GI50 in the experiment with EKVX, in the experiment with XF498, with SW-620, in the experiment with OVCAR-8, in the experiment on LXFL 529 and with KM-20L2 was > 100 µM (inactive) throughout. Moreover, the GI50 in the experiment on SNB-19, with SK-MEL-2, in the experiment with RPMI-8226, in the experiment on SR, in the experiment on NCI-H226 and in the experiment on DLD-1 was > 100 µM (inactive) each time. The GI50 in the experiment on U-251 was > 100 µM (inactive).
On to `CC1SC2=NC3=C(c4ccccc4C3=O)C(c3ccccc3Cl)N2C1=O` (centres undefined), for which the GI50 in the experiment on EKVX, in the experiment on XF498, in the experiment with SW-620, in the experiment with OVCAR-8, with LXFL 529 and with KM-20L2 was > 100 µM (inactive) in each case. Also, the GI50 in the experiment with SNB-19 is > 100 µM (inactive); in the experiment with SK-MEL-2, > 100 µM (inactive); with DMS-114, > 100 µM (inactive); in the experiment on RPMI-8226, 58.5 µM (inactive); in the experiment with NCI-H226, > 100 µM (inactive); in the experiment on DLD-1, > 100 µM (inactive). For the same compound, the GI50 in the experiment with U-251 is > 100 µM (inactive).
Take `C=C=C(Sc1ccccc1)C(C)(C)OC(C)=O`: the GI50 in the experiment with SW-620 was 17.6 µM (inactive); in the experiment on OVCAR-8, 20.2 µM (inactive); with LXFL 529, 18.2 µM (inactive); with KM-20L2 it was 26.3 µM (inactive); in the experiment with SNB-19 it was 18.8 µM (inactive); in the experiment with SK-MEL-2 it was 17.9 µM (inactive). Further, the GI50 is 30.7 µM (inactive) in the experiment with RPMI-8226; 27.9 µM (inactive) in the experiment with SR; 21.4 µM (inactive) in the experiment on NCI-H226; 16.5 µM (inactive) in the experiment on DLD-1; 16.9 µM (inactive) in the experiment with U-251.
Consider `C1CCCCc2nc3c(nc2CCC1)c1nc2c(nc1c1nc4c(nc31)CCCCCCCC4)CCCCCCCC2`, for which the GI50 with SW-620, in the experiment with OVCAR-8, in the experiment with LXFL 529, in the experiment with KM-20L2, in the experiment with SNB-19 and in the experiment with SK-MEL-2 was > 100 µM (inactive) in each case. The GI50 in the experiment with SR, in the experiment on DLD-1 and in the experiment on U-251 was > 100 µM (inactive) throughout.
Take `O=C(O)C(SC(=S)c1ccc(C(=S)SC(C(=O)O)c2ccccc2)cc1)c1ccccc1` (centres undefined): the GI50 in the experiment on XF498 was > 100 µM (inactive); in the experiment on SW-620 it was > 100 µM (inactive); in the experiment on OVCAR-8, > 100 µM (inactive); in the experiment on LXFL 529, 50.8 µM (inactive); with SNB-19, 46.6 µM (inactive); with SK-MEL-2, > 100 µM (inactive). In addition, the GI50 in the experiment with DMS-114 is 35 µM (inactive); in the experiment on RPMI-8226 it was 42.8 µM (inactive); in the experiment on SR, > 100 µM (inactive); in the experiment with NCI-H226 it was 55.5 µM (inactive); with DLD-1, > 100 µM (inactive); with U-251, > 100 µM (inactive).
For `COc1ccc(C[C@H]2COC(=O)[C@@H]2Cc2cccc(Br)c2)cc1OC`, the GI50 in the experiment with T47D was 27.7 µM (inactive); with EKVX it was 29.4 µM (inactive); in the experiment on Hs-578T, 32.3 µM (inactive); in the experiment with MCF7, 16.2 µM (inactive); with BT-549, 13.9 µM (inactive); in the experiment on SW-620 it was 22.5 µM (inactive). Further, the GI50 in the experiment on OVCAR-8 is 24.4 µM (inactive); with SNB-19 it was 52 µM (inactive); in the experiment with SK-MEL-2 it was 26 µM (inactive); with RPMI-8226, 17.8 µM (inactive); in the experiment with MDA-N it was 20.7 µM (inactive); in the experiment with SR, 3.05 µM (inactive). Also, the figures for the GI50 with NCI-H226, in the experiment with PC-3 and with U-251 were 29.9 µM (inactive), 15.8 µM (inactive) and 26.4 µM (inactive), respectively.
Regarding `O=C(O)/C(O)=C1/C=C(c2ccccc2)c2ccccc21`, the GI50 in the experiment with SW-620 was 20 µM (inactive); in the experiment on OVCAR-8 it was 23.9 µM (inactive); in the experiment with LXFL 529 it was 27.5 µM (inactive); with KM-20L2 it was 33.7 µM (inactive); in the experiment on SNB-19, 29.2 µM (inactive); in the experiment on SK-MEL-2, 16.7 µM (inactive). The GI50 in the experiment on DMS-114 was 18.7 µM (inactive); with RPMI-8226, 19.4 µM (inactive); in the experiment on SR it was 18.7 µM (inactive); in the experiment on NCI-H226 it was 21.6 µM (inactive); in the experiment with DLD-1 it was 30.1 µM (inactive); in the experiment with U-251, 18.7 µM (inactive).
For the compound `CN(N=O)c1nc2c(C(N)=O)ncn2s1`, the GI50 with T47D is > 100 µM (inactive); with EKVX it was > 100 µM (inactive); with Hs-578T it was > 100 µM (inactive); with MCF7, 86.7 µM (inactive); with BT-549, > 100 µM (inactive); in the experiment on SW-620 it was 46.9 µM (inactive). Moreover, the GI50 in the experiment on OVCAR-8 is 30.5 µM (inactive); with SNB-19, > 100 µM (inactive); in the experiment with SK-MEL-2, 35.8 µM (inactive); in the experiment with RPMI-8226, 45 µM (inactive); in the experiment on MDA-N, > 100 µM (inactive); with SR it was 48.9 µM (inactive). Moreover, the GI50 in the experiment on NCI-H226 is > 100 µM (inactive); with PC-3, 91.2 µM (inactive); in the experiment with U-251, > 100 µM (inactive).
For the compound `COc1oc(C2C/C(=C/C(C)=C/C(C)=C/C(C)=C/c3ccc([N+](=O)[O-])cc3)CO2)c(C)c(=O)c1C` (centres undefined), the GI50 with T47D is 1.04 µM (active); in the experiment on EKVX, 2.58 µM (inactive); in the experiment with Hs-578T, 5.89 µM (inactive); with MCF7 it was 1.59 µM (inactive); in the experiment on BT-549, 2.73 µM (inactive); with SW-620 it was 9.1 µM (inactive). Further, the GI50 was 1.52 µM (inactive) with OVCAR-8; 15.9 µM (inactive) in the experiment with SNB-19; 23.9 µM (inactive) in the experiment on SK-MEL-2; 0.55 µM (active) in the experiment with RPMI-8226; 2.74 µM (inactive) with MDA-N; < 0.01 µM (active) in the experiment with SR. Also, the GI50 in the experiment on NCI-H226 is 7.28 µM (inactive); in the experiment with PC-3, 2.02 µM (inactive); with U-251, 6.27 µM (inactive).
Consider `Cc1cc(C)c2c(O)cc(-c3cccc4ccccc34)nc2n1`, for which the GI50 in the experiment on T47D is 24.4 µM (inactive); in the experiment on EKVX it was 0.975 µM (active); in the experiment with Hs-578T, 1.09 µM (active); with MCF7, 0.719 µM (active); in the experiment on BT-549, 3.3 µM (inactive); with SW-620 it was 0.448 µM (active). The GI50 was 1.14 µM (inactive) in the experiment with OVCAR-8; 1.12 µM (inactive) with SNB-19; 0.291 µM (active) with SK-MEL-2; 0.671 µM (active) with RPMI-8226; 0.218 µM (active) with MDA-N; 0.342 µM (active) in the experiment with SR. Also, the GI50 in the experiment with NCI-H226 was 1.44 µM (inactive); in the experiment with PC-3, 0.641 µM (active); with U-251 it was 0.426 µM (active).
For `NC(CP(=O)(O)O)C(=O)O` (centres undefined), the GI50 in the experiment on T47D, in the experiment on EKVX, in the experiment on Hs-578T, with MCF7, in the experiment on BT-549 and in the experiment with SW-620 was > 100 µM (inactive) throughout. Moreover, the GI50 in the experiment on OVCAR-8, in the experiment with SNB-19, with SK-MEL-2, in the experiment on RPMI-8226, with MDA-N and with SR was > 100 µM (inactive) each time. Further, the GI50 in the experiment on NCI-H226, with PC-3 and with U-251 was > 100 µM (inactive) each time.
